Publication PMC5114172 (Journal of applied toxicology : JAT, 2016)

System: MD-PBMCs
Experiment: IL-1β secretion
Assay type: cell-based, human

In the case of `CCC[CH2][Sn][CH2]CCC` [DBT, Dibutyltin], the “Interleukin 1 beta secreted” value (donor F240, 24 h, 0.05 μM DBT + Caspase-1 inhibitor II 50 μM) is reported as 337 ± 7 pg/mL, the “Interleukin 1 beta secreted” value (donor F240, 24 h, 0.05 μM DBT + U0126 50 μM) is reported as 1840 ± 95 pg/mL and the “fold increase in IL-1β secretion” value (donor F240, 24 h, 0.05 μM DBT, absence of MEK inhibitor) is reported as 1.6 fold. The “Interleukin 1 beta secreted” value (donor F240, 24 h, 0.05 μM DBT, no inhibitor (CI experiment)) was 757 ± 17 pg/mL, the “Interleukin 1 beta secreted” value (donor F240, 24 h, 0.05 μM DBT, no inhibitor (U0126 experiment)) was 772 ± 54 pg/mL and the “Interleukin 1 beta secreted” value (donor F240, 24 h, 0.1 μM DBT + Caspase-1 inhibitor II 50 μM) was 467 ± 12 pg/mL. For the same molecule, the “Interleukin 1 beta secreted” value (donor F240, 24 h, 0.1 μM DBT + U0126 50 μM) was 1447 ± 142 pg/mL, the “fold increase in IL-1β secretion” value (donor F240, 24 h, 0.1 μM DBT, absence of MEK inhibitor) was 1.6 fold and the “Interleukin 1 beta secreted” value (donor F240, 24 h, 0.1 μM DBT, no inhibitor (CI experiment)) was 916 ± 67 pg/mL. The “Interleukin 1 beta secreted” value (donor F240, 24 h, 0.1 μM DBT, no inhibitor (U0126 experiment)) was 812 ± 109 pg/mL, the “fold increase in IL-1β secretion” value (donor F240, 24 h, 0.05 and 0.1 μM DBT, U0126 50 μM present) was “no DBT-induced increases” and the “Interleukin 1 beta secreted” value (donor F242, 24 h, 0.05 μM DBT + Caspase-1 inhibitor II 50 μM) was 495 ± 25 pg/mL. The “Interleukin 1 beta secreted” value (donor F242, 24 h, 0.05 μM DBT + U0126 50 μM) was 759 ± 10 pg/mL, the “Interleukin 1 beta secreted” value (donor F242, 24 h, 0.05 μM DBT, no inhibitor (CI experiment)) was 2752 ± 49 pg/mL and the “Interleukin 1 beta secreted” value (donor F242, 24 h, 0.05 μM DBT, no inhibitor (U0126 experiment)) was 2230 ± 89 pg/mL. For the same molecule, the “Interleukin 1 beta secreted” value (donor F242, 24 h, 0.1 μM DBT + Caspase-1 inhibitor II 50 μM) was 354 ± 43 pg/mL, the “Interleukin 1 beta secreted” value (donor F242, 24 h, 0.1 μM DBT + U0126 50 μM) was 312 ± 27 pg/mL and the “Interleukin 1 beta secreted” value (donor F242, 24 h, 0.1 μM DBT, no inhibitor (CI experiment)) was 2874 ± 77 pg/mL. The “Interleukin 1 beta secreted” value (donor F242, 24 h, 0.1 μM DBT, no inhibitor (U0126 experiment)) was 2172 ± 25 pg/mL, the “Interleukin 1 beta secreted” value (donor F244, 24 h, 0.05 μM DBT + BAY 11-7085) was 1107 ± 14 pg/mL and the “Interleukin 1 beta secreted” value (donor F244, 24 h, 0.05 μM DBT + Caspase-1 inhibitor II 50 μM) was 334 ± 11 pg/mL. The “Interleukin 1 beta secreted” value (donor F244, 24 h, 0.05 μM DBT + U0126 50 μM) was 61 ± 23 pg/mL, the “fold increase in IL-1β secretion” value (donor F244, 24 h, 0.05 μM DBT, BAY 11-7085 present) was 1.3 fold and the “fold increase in IL-1β secretion” value (donor F244, 24 h, 0.05 μM DBT, absence of NFκB inhibitor) was 1.2 fold. For the same molecule, the “Interleukin 1 beta secreted” value (donor F244, 24 h, 0.05 μM DBT, no inhibitor (BAY experiment)) was 947 ± 29 pg/mL, the “Interleukin 1 beta secreted” value (donor F244, 24 h, 0.05 μM DBT, no inhibitor (CI experiment)) was 1291 ± 34 pg/mL and the “Interleukin 1 beta secreted” value (donor F244, 24 h, 0.05 μM DBT, no inhibitor (U0126 experiment)) was 1764 ± 62 pg/mL. For the same molecule, the “Interleukin 1 beta secreted” value (donor F244, 24 h, 0.1 μM DBT + BAY 11-7085) was 1067 ± 19 pg/mL, the “Interleukin 1 beta secreted” value (donor F244, 24 h, 0.1 μM DBT + Caspase-1 inhibitor II 50 μM) was 302 ± 3 pg/mL and the “Interleukin 1 beta secreted” value (donor F244, 24 h, 0.1 μM DBT + U0126 50 μM) was 143 ± 50 pg/mL. For the same molecule, the “fold increase in IL-1β secretion” value (donor F244, 24 h, 0.1 μM DBT, BAY 11-7085 present) was 1.3 fold, the “fold increase in IL-1β secretion” value (donor F244, 24 h, 0.1 μM DBT, absence of NFκB inhibitor) was 1.3 fold and the “Interleukin 1 beta secreted” value (donor F244, 24 h, 0.1 μM DBT, no inhibitor (BAY experiment)) was 1029 ± 59 pg/mL. For the same molecule, the “Interleukin 1 beta secreted” value (donor F244, 24 h, 0.1 μM DBT, no inhibitor (CI experiment)) was 1444 ± 43 pg/mL, the “Interleukin 1 beta secreted” value (donor F244, 24 h, 0.1 μM DBT, no inhibitor (U0126 experiment)) was 2001 ± 184 pg/mL and the “Interleukin 1 beta secreted” value (donor F245, 24 h, 0.05 μM DBT + BAY 11-7085) was 630 ± 60 pg/mL. For the same molecule, the “Interleukin 1 beta secreted” value (donor F245, 24 h, 0.05 μM DBT + Caspase-1 inhibitor II 50 μM) was 216 ± 19 pg/mL, the “Interleukin 1 beta secreted” value (donor F245, 24 h, 0.05 μM DBT + U0126 50 μM) was 277 ± 8 pg/mL and the “fold increase in IL-1β secretion” value (donor F245, 24 h, 0.05 μM DBT, Caspase-1 inhibitor II 50 μM present) was 1.4 fold. The “fold increase in IL-1β secretion” value (donor F245, 24 h, 0.05 μM DBT, absence of Caspase-1 inhibitor) was 1.8 fold, the “Interleukin 1 beta secreted” value (donor F245, 24 h, 0.05 μM DBT, no inhibitor (BAY experiment)) was 883 ± 66 pg/mL and the “Interleukin 1 beta secreted” value (donor F245, 24 h, 0.05 μM DBT, no inhibitor (CI experiment)) was 1399 ± 20 pg/mL. The “Interleukin 1 beta secreted” value (donor F245, 24 h, 0.05 μM DBT, no inhibitor (U0126 experiment)) was 1174 ± 49 pg/mL, the “Interleukin 1 beta secreted” value (donor F245, 24 h, 0.1 μM DBT + BAY 11-7085) was 514 ± 80 pg/mL and the “Interleukin 1 beta secreted” value (donor F245, 24 h, 0.1 μM DBT + Caspase-1 inhibitor II 50 μM) was 163 ± 10 pg/mL. The “Interleukin 1 beta secreted” value (donor F245, 24 h, 0.1 μM DBT + U0126 50 μM) was 231 ± 14 pg/mL, the “fold increase in IL-1β secretion” value (donor F245, 24 h, 0.1 μM DBT, Caspase-1 inhibitor II 50 μM present) was “no increase” and the “fold increase in IL-1β secretion” value (donor F245, 24 h, 0.1 μM DBT, absence of Caspase-1 inhibitor) was 1.8 fold. The “Interleukin 1 beta secreted” value (donor F245, 24 h, 0.1 μM DBT, no inhibitor (BAY experiment)) was 1206 ± 91 pg/mL, the “Interleukin 1 beta secreted” value (donor F245, 24 h, 0.1 μM DBT, no inhibitor (CI experiment)) was 1375 ± 18 pg/mL and the “Interleukin 1 beta secreted” value (donor F245, 24 h, 0.1 μM DBT, no inhibitor (U0126 experiment)) was 1246 ± 65 pg/mL. For the same molecule, the “Interleukin 1 beta secreted” value (donor F247, 24 h, 0.05 μM DBT + SB202190) was 1495 ± 134 pg/mL, the “fold increase in IL-1β secretion” value (donor F247, 24 h, 0.05 μM DBT, absence of p38 inhibitor) was 7.2 fold and the “Interleukin 1 beta secreted” value (donor F247, 24 h, 0.05 μM DBT, no inhibitor (SB202190 experiment)) was 1378 ± 246 pg/mL. The “Interleukin 1 beta secreted” value (donor F247, 24 h, 0.1 μM DBT + SB202190) was 1329 ± 99 pg/mL, the “fold increase in IL-1β secretion” value (donor F247, 24 h, 0.1 μM DBT, absence of p38 inhibitor) was 2.5 fold and the “Interleukin 1 beta secreted” value (donor F247, 24 h, 0.1 μM DBT, no inhibitor (SB202190 experiment)) was 477 ± 60 pg/mL. The “fold increase in IL-1β secretion” value (donor F247, 24 h, 0.05 and 0.1 μM DBT, SB202190 present) was “no increases”, the “Interleukin 1 beta secreted” value (donor F254, 24 h, 0.05 μM DBT + Caspase-1 inhibitor II 50 μM) was 41 ± 9 pg/mL and the “Interleukin 1 beta secreted” value (donor F254, 24 h, 0.05 μM DBT, no inhibitor (CI experiment)) was 521 ± 62 pg/mL. The “Interleukin 1 beta secreted” value (donor F254, 24 h, 0.1 μM DBT + Caspase-1 inhibitor II 50 μM) was 17 ± 16 pg/mL, the “Interleukin 1 beta secreted” value (donor F254, 24 h, 0.1 μM DBT, no inhibitor (CI experiment)) was 206 ± 2 pg/mL and the “Interleukin 1 beta secreted” value (donor F262, 24 h, 0.05 μM DBT + SB202190) was 146 ± 8 pg/mL. The “Interleukin 1 beta secreted” value (donor F262, 24 h, 0.05 μM DBT, no inhibitor (SB202190 experiment)) was 1100 ± 58 pg/mL, the “Interleukin 1 beta secreted” value (donor F262, 24 h, 0.1 μM DBT + SB202190) was 134 ± 183 pg/mL and the “Interleukin 1 beta secreted” value (donor F262, 24 h, 0.1 μM DBT, no inhibitor (SB202190 experiment)) was 1021 ± 61 pg/mL. For the same molecule, the “Interleukin 1 beta secreted” value (donor F333, 24 h, 0.05 μM DBT + BAY 11-7085) was 2518 ± 60 pg/mL, the “Interleukin 1 beta secreted” value (donor F333, 24 h, 0.05 μM DBT, no inhibitor (BAY experiment)) was 3995 ± 161 pg/mL and the “Interleukin 1 beta secreted” value (donor F333, 24 h, 0.1 μM DBT + BAY 11-7085) was 1960 ± 102 pg/mL. The “Interleukin 1 beta secreted” value (donor F333, 24 h, 0.1 μM DBT, no inhibitor (BAY experiment)) was 2755 ± 84 pg/mL, the “Interleukin 1 beta secreted” value (donor F334, 24 h, 0.05 μM DBT + BAY 11-7085) was 1035 ± 19 pg/mL and the “Interleukin 1 beta secreted” value (donor F334, 24 h, 0.05 μM DBT, no inhibitor (BAY experiment)) was 2281 ± 53 pg/mL. The “Interleukin 1 beta secreted” value (donor F334, 24 h, 0.1 μM DBT + BAY 11-7085) was 702 ± 82 pg/mL, the “Interleukin 1 beta secreted” value (donor F334, 24 h, 0.1 μM DBT, no inhibitor (BAY experiment)) was 1468 ± 94 pg/mL and the “Interleukin 1 beta secreted” value (donor F372, 24 h, 0.05 μM DBT + SB202190) was 348 ± 198 pg/mL. The “Interleukin 1 beta secreted” value (donor F372, 24 h, 0.05 μM DBT, no inhibitor (SB202190 experiment)) was 2388 ± 322 pg/mL, the “Interleukin 1 beta secreted” value (donor F372, 24 h, 0.1 μM DBT + SB202190) was 70 ± 14 pg/mL and the “Interleukin 1 beta secreted” value (donor F372, 24 h, 0.1 μM DBT, no inhibitor (SB202190 experiment)) was 1985 ± 53 pg/mL. For the same molecule, the “Interleukin 1 beta secreted” value (donor F385, 24 h, 0.05 μM DBT + SB202190) was 65 ± 24 pg/mL, the “Interleukin 1 beta secreted” value (donor F385, 24 h, 0.05 μM DBT, no inhibitor (SB202190 experiment)) was 1863 ± 83 pg/mL and the “Interleukin 1 beta secreted” value (donor F385, 24 h, 0.1 μM DBT, no inhibitor (SB202190 experiment)) was 1126 ± 29 pg/mL.
